Patent publication US10716798B2, “Compositions and methods for tranquilizing heart muscle” (THE REGENTS OF THE UNIVERSITY OF MICHIGAN, priority 2007, dated 2020)

Key:
[1] = tested on: atrial natriuretic peptide (ANP) in HL-1 cardiomyocytes; assay: Repression of atrial natriuretic peptide (ANP) in HL-1 cardiomyocytes (Western blot); assay type: cell-based; conditions: HL-1 cardiomyocytes treated 48 hours, Western analysis, vs vehicle
Method: Induction of VDR and repression of ANP by calcitriol (1,25-(OH)2vitamin-D3) and 1 alpha analogs (1α-Hydroxyitamin-D3 and 1α-hydroxysitocalciferol) is shown in the Western blot of FIG. 7. HL-1 cardiomyocyte cells were grown until confluent then split, and an equal amount (8×10^6 cells) of cells were plated for 24 hours and then treated for 48 hours either with vehicle (control) or with the indicated amount of Vitamin D compound. Cells were then harvested and subjected to Western analysis.

[2] = tested on: SHHF rats; assay: Resting heart rate in SHHF rats after Vitamin D treatment; assay type: in vivo, rat; conditions: 13 weeks; for Heart rate vs control SHHF rats: SQ
From the text: (§1) The effects of Vitamin D compounds including Vitamin D5 and D3 on the contraction of cardiomyocytes in vivo can be studied using normal and heart failure prone rats. To test the effect of Vitamin D compounds on heart failure rats, the present inventors selected the strain of rats called Spontaneously Hypertensive Heart Failure (SHHF) rats obtained from Charles River Laboratories, Wilmington Mass., USA. The SHHF rat was developed by backcrossing the SHROB rat to the SHR/N rat. They are characterized as naturally developing congestive heart failure, hypertension, nephropathy, obesity, insulin resistance, hyperinsulinemia and Type 2 diabetes spontaneously. […] Obesity is expressed as an autosomal recessive (cp/cp) trait, and hypertension is multifactorial (Yen at al., 1974). The CHF trait has been maintained through at least 15 generations. The mode of inheritance of the CHF is probably multifactorial, much like hypertension. These rats develop many of the clinical signs of CHF: generalized and subcutaneous edema, hydrothorax, ascites, dyspnea, cyanosis, enlarged hearts, left atrial thrombosis, and hyperemia of the lungs, liver, and kidneys. These rats are hypertensive, but blood pressure falls to normal levels with the onset of severe CHF. […] These morphologic changes probably reflect early compensatory LV hypertrophy at 6-10 months of age. This is followed by LV failure with elevated right heart pressures and RVFW hypertrophy, finally leading to biventricular CHF. This progression is similar to that of hypertensive heart disease in humans. Other similarities between the SHHF model and human hypertensive-diabetic cardiomyopathy (Factor et al., 1980) and another rat model of hypertension and diabetes (Factor et al., 1983) include increased heart weight and prominent interstitial fibrosis. Pathologic alterations in SHHF Rat hearts corresponding to human dilated cardiomyopathy include four-chamber dilation, intracardiac thrombi, myocyte hypertrophy, and interstitial fibrosis (Unveferth et al., 1986).
Five treatment groups were established using SHHF rats. […]

[3] = tested on: Vitamin D receptor (VDR) in HL-1 cardiomyocytes; assay: Induction of VDR in HL-1 cardiomyocytes (Western blot); assay type: cell-based; conditions: HL-1 cardiomyocytes treated 48 hours, Western analysis, vs vehicle
Method: HL-1 cardiomyocyte cells were grown until confluent then split, and an equal amount (8×10^6 cells) of cells were plated for 24 hours and then treated for 48 hours either with vehicle (control) or with the indicated amount of Vitamin D compound. Cells were then harvested and subjected to Western analysis.

[4] = tested on: SHHF rats; assay: Systolic blood pressure by tail-cuff in SHHF rats; assay type: in vivo, rat; conditions: 100 ng/100 g bw, SQ, 13 weeks
From the text: as §1, with “This is followed by LV failure with elevated right heart pressures and RVFW hypertrophy, finally leading to biventricular CHF. This progression is similar to that of hypertensive heart disease in humans. Other similarities between the SHHF model and human hypertensive-diabetic cardiomyopathy (Factor et al., 1980) and another rat model of hypertension and diabetes (Factor et al., 1983) include increased heart weight and prominent interstitial fibrosis. Pathologic alterations in SHHF Rat hearts corresponding to human dilated cardiomyopathy include four-chamber dilation, intracardiac thrombi, myocyte hypertrophy, and interstitial fibrosis (Unveferth et al., 1986).” left out

[5] = Total body weight of SHHF rats; assay type: in vivo, rat; conditions: 100 ng/100 g body weight, SQ, 13 weeks
Method: (§2) Five treatment groups were established using SHHF rats. In each cohort (5-6 rats), the diets were substantially identical, rats were each fed a high salt diet (8% NaCl) (Harlan Teklad diet TD92012, Madison Wis. USA) and were accommodated equally. All treatment groups received a single once daily administration subcutaneously (SQ) of a Vitamin D compound at varying concentrations five times per week. The Vitamin D compound was dissolved in 1,2 propandiol containing 0.7% ethanol. Control SHHF rats were dosed with vehicle control alone. The animals were dosed for a period of 13 weeks before they were examined by echocardiography explained in more detail below. The first group comprised a control group in which they received a vehicle alone treatment lacking any Vitamin D. The second group consisted of SHHF rats injected with 18 ng 1,25 dihydroxy Vitamin D3 per dose, one dose per day treated animals. The third group consisted of SHHF rats injected with 33 ng of 1α-hydroxysitocalciferol per dose, one dose per day treated animals. The fourth group consisted of SHHF rats injected with 100 ng of 1α-hydroxysitocalciferol per dose, one dose per day treated animals. The fifth group consisted of SHHF rats injected with 300 ng of 1α-hydroxysitocalciferol per dose, one dose per day treated animals.
Blood pressure measurement by tail-cuff artery occlusion.

[6] = tested on: SHHF rats; assay: Cardiac hemodynamic parameters by echocardiography in SHHF rats; assay type: in vivo, rat; conditions: for E/A transmitral flow ratio, change vs control / Cardiac index vs control / Stroke volume vs control: 5 days per week for 13 weeks
Method: as §2
After 13 weeks of treatment with the Vitamin D compounds or vehicle control alone, the SHHF rat's cardiac hemodynamic condition was measured, recorded and analyzed for the presence or absence of cardiac tranquilization and reversal of heart failure symptoms.
Non-invasive recording electrocardiograms and echocardiography in conscious rats: Two-dimensional and M-mode echocardiographic images will be recorded using a GE S10 MHz phased-array transducer, connected to a General Electric, Vivid 7 Ultrasound System. The System used for ECG was the AnonyMOUSE ECG Screening System (Mouse Specifics, Boston, Mass. USA). The rats are placed on the instrument's platform and acclimated for 10 min prior to ECG recordings. Animals are anesthetized using an isoflurane anesthetic machine, first by introducing 4% isoflurane and 1 liter of oxygen to an induction chamber. When rats are in lateral recumbency and the breathing is slowed, they are moved to the table where they are placed on a warming pad to maintain body temperature. Their nose is placed in a cone which supplies 1-2% isoflurane and 1 liter of oxygen to maintain a surgical plane of anesthesia. The hair is removed from the upper abdominal and thoracic area with depilatory cream. ECG is monitored via non-invasive resting ECG electrodes (trimmed to fit) placed on the paw pads. The echocardiogram takes approximately 10 minutes.
Transthoracic echocardiography is performed in the supine or left lateral position. Data are analyzed by proprietal software and all rats ECG intervals analyzed by Student's two-tail t-test. […]

[7] = tested on: adult cardiomyocyte; assay: PKC activation and adult cardiomyocyte contractile function; assay type: cell-based
Method: In addition to continued acceleration of relengthening in cardiomyocytes, upon administration of Vitamin D5 the PKC targets phospholamban and cardiac troponin I (cTnI) are specifically phosphorylated by PKC within approximately 60 minutes. Without being bound to theory, it is believed that phosphorylation of phospholamban can increase Ca^2+ sequestration into the sarcoplasmic reticulum while cardiac troponin C I phosphorylation decreases myofilament Ca^2+ sensitivity, two particularly significant events in increasing the relaxation of contractile function in the adult cardiomyocyte.
The pharmaceutical compositions and methods described herein illustrate a mechanism to accelerate relaxation of cardiomyocyte contractile function via direct and rapid cellular action upon administration of 1α25-dihydroxyvitamin D5. These acute effects can be blocked by PKC inhibitors, illustratively bis-I. The phosphorylation of these key cardiac markers phospholamban and troponin C I develop within the same time period as the initial rapid decrease in peak shortening, and acceleration of contraction and relaxation rates.

[8] = 300 ng/day, listed as Vitamin D5

Compound	Repression of ANP expression [1]	Heart rate vs control SHHF rats or Wistar rats ([2]; 18 ng 1,25(OH)2D3, SQ)	Induction of VDR [3]	Heart rate vs control SHHF rats ([2]; 33 ng/100 g body weight)	Heart rate vs control SHHF rats ([2]; 300 ng/day)	Systolic blood pressure vs control SHHF rats [4]	Total body weight at 30 weeks age vs control SHHF rats [5]	E/A transmitral flow ratio, change vs control ([6]; 100 ng/day)	E/A transmitral flow ratio, change vs control ([6]; 100 ng/day, listed as Vitamin D5)	E/A ratio ([6]; 300 ng/day, 13 week treatment)	Cardiac index vs control ([6]; 300 ng/day)	E/A transmitral flow ratio, change vs control ([6]; 300 ng/day)	Stroke volume vs control ([6]; 300 ng/day)	Cardiac index vs control [6, 8]	Stroke volume vs control [6, 8]	Stroke volume, untreated SHHF rats in comparison to treated ([6]; all doses of Vitamin D5 (33, 100, 300 ng/day), 13 weeks)	Time to phosphorylation of phospholamban and cardiac troponin I (cTnI) by PKC ([7]; cardiomyocytes, upon administration of Vitamin D5) [min]	Relaxation in adult cardiomyocyte contractile function ([7]; via PKC activation)
C=C1/C(=C\C=C2/CCC[C@]3(C)[C@@H]([C@H](C)CCCC(C)(C)O)CC[C@@H]23)C[C@@H](O)C[C@@H]1O [1,25(OH)2D3, 1,25-dihydroxyvitamin D3, reference compound]	repression	higher heart rates albeit not statistically significant																
C=C1/C(=C\C=C2/CCC[C@]3(C)[C@@H]([C@H](C)CCCC(C)C)CC[C@@H]23)C[C@@H](O)C[C@@H]1O [1α-Hydroxyitamin-D3, reference compound]	repression		considerable induction															
C=C1/C(=C\C=C2/CCC[C@]3(C)[C@@H]([C@H](C)CC[C@@H](CC)C(C)C)CC[C@@H]23)C[C@@H](O)C[C@@H]1O [1α-hydroxysitocalciferol, 1-α-hydroxy-2,4-ethyl-9,10-seco-5,7,10(19)-cholestatrien-3 β-ol]	remarkable repression		considerable induction	decrease	increase in heart rate	significant decreased BP	significant increased body weight	statistically significant reduction	significant reduction	about 0.99	statistically significant reduction	statistically significant reduction	statistically significant reduction	significant reduction	Most pronounced	statistically significant	≤ 60	accelerated relaxation
